Data set [1] relates to Beagle dogs. As to the kind of experiment: Ocular surface hyperemia, dogs. Type of data set: in vivo. Further details: key: 0.5: <1 trace; 1 mild; 2: moderate; 3: severe. The following applies: score. How it is done:
(§1) Ocular surface hyperemia was visually assessed and scored according to a system typically used clinically.
(§2) Ocular surface hyperemia was evaluated at the same time points as intraocular pressure measurement. It should be noted that untreated dog eyes frequently have a pink/red tone. Thus, values of trace or even mild are not necessarily out of the normal range. Similar tests were used to determine ocular surface hyperemia on monkeys and rabbits.

For the next data set, the system named is rabbits. The data set can be described thus: Ocular surface hyperemia, rabbits. The settings on record: score. Type of data set: in vivo. The protocol:
as §1, §2

The next data set concerns monkeys. As to the kind of experiment: Intraocular pressure (IOP) in monkeys. It counts as in vivo.
The subject of data set [2] is Beagle dogs. The data set can be described thus: Intraocular pressure (IOP) in dogs, pneumatonometry. It counts as in vivo. The following applies: topical. How it is done: (§3) Intraocular pressure studies in dogs involved pneumatonometry performed in conscious, Beagle dogs of both sexes (10-15 kg). The animals remained conscious throughout the study and were gently restrained by hand. Drugs were administered topically to one eye as a 25 μL volume drop, the other eye received 25 μL vehicle (0.1% (w/v) polysorbate 80; 10 mM TRIS) as a control. Proparacaine (0.1% w/v) was used for corneal anesthesia during tonometry. Intraocular pressure was determined just before drug administration and at 2, 4 and 6 hr thereafter on each day of the 5 day study. Drug was administered immediately after the first IOP reading.
as §3, with “(0.1%” for “(0.1% (w/v)”, “80:10” for “80; 10”, “(0.1%)” for “(0.1% w/v)”

The next data set deals with T1, hFP (Homo sapiens, UniProt P43088).
T1 construct: expressed in transfected cells; host or cells: HEK-293(EBNA)
The data set can be described thus: FLIPR calcium signal, hFP. Type of data set: cell-based. The following applies: Table 3, third part. How it is done:
(§4) HEK-293(EBNA) cells, stably expressing one type or subtype of recombinant human prostaglandin receptors (prostaglandin receptors expressed: hDP/Gqs5; hEP1; hEP2/Gqs5; hEP3A/Gqi5; hEP4/Gqs5; hFP; hIP; hTP), were cultured in 100 mm culture dishes in high-glucose DMEM medium containing 10% fetal bovine serum, 2 mM 1-glutamine, 250 μg/ml geneticin (G418) and 200 μg/ml hygromycin B as selection markers, and 100 units/ml penicillin G, 100 μg/ml streptomycin and 0.25 μg/ml amphotericin B. • (b) Calcium Signal Studies on the FLIPR™
(§5) Cells were seeded at a density of 5×10^4 cells per well in Biocoat® Poly-D-lysine-coated black-wall, clear-bottom 96-well plates (Becton-Dickinson) and allowed to attach overnight in an incubator at 37° C. Cells were then washed two times with HBSS-HEPES buffer (Hanks Balanced Salt Solution without bicarbonate and phenol red, 20 mM HEPES, pH 7.4) using a Denley Cellwash plate washer (Labsystems). After 45 minutes of dye-loading in the dark, using the calcium-sensitive dye Fluo-4 AM at a final concentration of 2 μM, plates were washed four times with HBSS-HEPES buffer to remove excess dye leaving 100 μl in each well. Plates were re-equilibrated to 37° C. for a few minutes.
(§6) Cells were excited with an Argon laser at 488 nm, and emission was measured through a 510-570 nm bandwidth emission filter (FLIPR™, Molecular Devices, Sunnyvale, Calif.). Drug solution was added in a 50 μl volume to each well to give the desired final concentration. The peak increase in fluorescence intensity was recorded for each well. On each plate, four wells each served as negative (HBSS-HEPES buffer) and positive controls (standard agonists: BW245C (hDP); PGE2 (hEP1; hEP2/Gqs5; hEP3A/Gqi5; hEP4/Gqs5); PGF2α (hFP); carbacyclin (hIP); U-46619 (hTP), depending on receptor). The peak fluorescence change in each drug-containing well was then expressed relative to the controls.
Compounds were tested in a high-throughput (HTS) or concentration-response (CoRe) format. […]

Another data set addresses T2, hEP1 (Homo sapiens, UniProt P34995).
T2 construct: expressed in transfected cells; host or cells: HEK-293(EBNA)
T2 sequence (P34995 1-402): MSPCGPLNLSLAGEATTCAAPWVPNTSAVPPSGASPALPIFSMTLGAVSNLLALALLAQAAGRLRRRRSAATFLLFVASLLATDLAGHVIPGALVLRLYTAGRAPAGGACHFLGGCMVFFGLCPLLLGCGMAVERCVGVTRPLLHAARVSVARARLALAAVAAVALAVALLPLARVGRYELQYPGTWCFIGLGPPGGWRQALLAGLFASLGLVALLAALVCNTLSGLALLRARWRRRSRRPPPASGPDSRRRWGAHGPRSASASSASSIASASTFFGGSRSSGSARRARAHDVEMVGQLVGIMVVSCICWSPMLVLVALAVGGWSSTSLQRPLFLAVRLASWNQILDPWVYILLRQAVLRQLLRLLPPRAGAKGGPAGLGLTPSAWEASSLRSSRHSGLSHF
As to the kind of experiment: FLIPR calcium signal, hEP1. It counts as cell-based. The following applies: Table 3, third part. How it is done:
as §4, §5, §6
(§7) Compounds were tested in a high-throughput (HTS) or concentration-response (CoRe) format. In the HTS format, forty-four compounds per plate were examined in duplicates at a concentration of 10^−5 M. To generate concentration-response curves, four compounds per plate were tested in duplicates in a concentration range between 10^−5 and 10^−11 M. The duplicate values were averaged. In either, HTS or CoRe format each compound was tested on at least 3 separate plates using cells from different passages to give an n≧3.

The target in another data set is T3, hEP4/Gqs5 (Homo sapiens, UniProt P35408).
T3 construct: expressed in transfected cells; host or cells: HEK-293(EBNA)
The data set can be described thus: FLIPR calcium signal, hEP4. It counts as cell-based. The following applies: Table 3, third part. In outline:
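HEK-293(EBNA) cells stably expressing the recombinant human receptor were loaded with 2 μM Fluo-4 AM for 45 min and read on FLIPR at 37° C in HBSS-HEPES pH 7.4. Peak fluorescence rise was expressed relative to buffer and standard agonist controls (BW245C, PGE2 or U-46619 by receptor); compounds were run 10^−5 to 10^−11 M in duplicate, n≧3.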

The target of a further data set is T4, hTP (Homo sapiens, UniProt P21731).
T4 construct: expressed in transfected cells; host or cells: HEK-293(EBNA)
T4 sequence (P21731 1-343): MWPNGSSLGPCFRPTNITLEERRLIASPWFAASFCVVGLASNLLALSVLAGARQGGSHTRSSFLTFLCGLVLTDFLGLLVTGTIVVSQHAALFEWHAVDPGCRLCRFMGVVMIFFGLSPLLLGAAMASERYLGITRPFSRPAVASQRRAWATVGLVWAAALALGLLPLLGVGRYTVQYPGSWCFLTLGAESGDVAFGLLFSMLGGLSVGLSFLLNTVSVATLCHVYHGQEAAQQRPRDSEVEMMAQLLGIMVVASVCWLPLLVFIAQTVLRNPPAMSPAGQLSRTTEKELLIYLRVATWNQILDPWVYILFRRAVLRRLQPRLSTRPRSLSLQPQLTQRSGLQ
As to the kind of experiment: FLIPR calcium signal, hTP. Type of data set: cell-based. The following applies: Table 3, third part. The protocol:
as §4, §5, §6, §7

The next data set addresses T5, hIP (Homo sapiens, UniProt P43119).
T5 construct: expressed in transfected cells; host or cells: HEK-293(EBNA)
The data set can be described thus: FLIPR calcium signal, hIP. It counts as cell-based. The following applies: Table 3, third part. How it is done:
as §4, §5, §6, §7

T1 sequence (P43088 whole entry): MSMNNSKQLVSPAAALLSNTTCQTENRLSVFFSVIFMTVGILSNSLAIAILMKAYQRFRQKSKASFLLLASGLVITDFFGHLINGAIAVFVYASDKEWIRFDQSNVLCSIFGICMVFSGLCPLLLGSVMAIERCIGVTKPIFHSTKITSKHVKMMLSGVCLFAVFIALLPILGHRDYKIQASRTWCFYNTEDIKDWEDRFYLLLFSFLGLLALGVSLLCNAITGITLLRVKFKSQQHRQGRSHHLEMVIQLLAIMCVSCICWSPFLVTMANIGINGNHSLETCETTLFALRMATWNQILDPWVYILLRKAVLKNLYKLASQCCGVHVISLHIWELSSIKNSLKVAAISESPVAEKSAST
T3 sequence (P35408 whole entry): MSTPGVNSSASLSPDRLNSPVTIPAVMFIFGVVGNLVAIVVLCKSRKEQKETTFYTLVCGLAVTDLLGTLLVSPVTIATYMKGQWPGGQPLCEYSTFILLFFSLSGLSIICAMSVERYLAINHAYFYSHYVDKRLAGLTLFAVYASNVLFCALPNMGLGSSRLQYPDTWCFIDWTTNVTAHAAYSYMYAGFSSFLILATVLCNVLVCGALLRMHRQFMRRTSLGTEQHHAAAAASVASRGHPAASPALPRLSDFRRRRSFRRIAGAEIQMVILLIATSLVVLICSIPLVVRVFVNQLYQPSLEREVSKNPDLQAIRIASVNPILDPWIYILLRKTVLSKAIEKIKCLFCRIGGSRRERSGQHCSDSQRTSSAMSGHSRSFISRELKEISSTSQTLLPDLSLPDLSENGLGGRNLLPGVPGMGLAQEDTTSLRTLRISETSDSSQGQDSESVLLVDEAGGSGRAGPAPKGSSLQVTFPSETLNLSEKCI
T5 sequence (P43119 whole entry): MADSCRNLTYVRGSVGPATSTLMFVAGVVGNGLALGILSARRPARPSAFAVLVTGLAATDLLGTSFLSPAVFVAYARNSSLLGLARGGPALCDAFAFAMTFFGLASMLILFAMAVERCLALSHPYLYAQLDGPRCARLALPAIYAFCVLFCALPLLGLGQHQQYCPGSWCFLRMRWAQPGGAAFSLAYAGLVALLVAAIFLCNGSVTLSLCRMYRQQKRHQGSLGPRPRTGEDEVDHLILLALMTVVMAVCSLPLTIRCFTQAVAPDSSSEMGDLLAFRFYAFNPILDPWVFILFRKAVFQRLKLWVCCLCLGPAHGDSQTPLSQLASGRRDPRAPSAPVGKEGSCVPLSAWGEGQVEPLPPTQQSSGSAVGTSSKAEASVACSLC

Turning to `CCCCCC(=O)c1ccc([C@@H]2[C@@H](C/C=C\CCCC(=O)OC(C)C)[C@H](Cl)C[C@H]2O)cc1`, the “DOG Max. hyperemia” value in the data set with Beagle dogs [1] (Conc. 0.10% (0.1%) g/100 mL) is 0.8. In addition, the “RABBIT Max. hyperemia” value in the data set with rabbits (Conc. 0.10% (0.1%) g/100 mL) is reported as 0. In the data set with monkeys (Conc. 0.10% (0.1%) g/100 mL), the “MONKEY Max. ΔIOP (mm Hg)” value is on record as 20 mm Hg.
For `CC(C)(CO)c1ccc([C@@H]2[C@@H](C/C=C\CCCC(=O)O)[C@H](Cl)C[C@H]2O)cc1` [drawing 243], the “DOG Max. ΔIOP (mm Hg)” value in the data set with Beagle dogs [2] (Conc. 0.30% g/100 mL) is −8 mm Hg. The “DOG Max. hyperemia” value in the data set on Beagle dogs [1] (Conc. 0.30% g/100 mL) was 0.9.
With `O=C(O)CCC/C=C\C[C@@H]1[C@@H](c2ccc3c(c2)CCC3O)[C@H](O)C[C@H]1Cl` (stereo partly drawn), the “DOG Max. ΔIOP (mm Hg)” value in the data set with Beagle dogs [2] (Conc. 0.30% g/100 mL) is −7 mm Hg. Also, in the data set with Beagle dogs [1] (Conc. 0.30% g/100 mL), the “DOG Max. hyperemia” value came to 1. The “MONKEY Max. ΔIOP (mm Hg)” value in the data set with monkeys (Conc. 0.30% g/100 mL) was determined as 7 mm Hg.
With `CC(C)OC(=O)CCCCCC[C@@H]1[C@@H](c2ccc(C(C)(C)C)cc2)[C@H](O)C[C@H]1Cl`, the “RABBIT Max. hyperemia” value in the data set on rabbits (Conc. 0.01% g/100 mL) turned out to be 0.1. In addition, the “MONKEY Max. ΔIOP (mm Hg)” value in the data set on monkeys (Conc. 0.01% g/100 mL) was 8 mm Hg.
For `CC(C)(C)c1ccc([C@@H]2[C@@H](CCCCCCC(=O)O)[C@H](Cl)C[C@H]2O)cc1` [drawing 237], the “DOG Max. ΔIOP (mm Hg)” value in the data set on Beagle dogs [2] (Conc. 0.10% (0.1%) g/100 mL) was −4 mm Hg. Further, the “DOG Max. hyperemia” value with Beagle dogs [1] (Conc. 0.10% (0.1%) g/100 mL) is recorded as 0.9. The “RABBIT Max. hyperemia” value with rabbits (Conc. 0.10% (0.1%) g/100 mL) worked out at 0.
As for `O=C(O)CCC/C=C\C[C@@H]1[C@@H](c2ccc(C(O)C3CCCCC3)cc2)[C@H](O)C[C@H]1Cl` (stereo partly drawn) [drawing 239], the “DOG Max. ΔIOP (mm Hg)” value in the data set on Beagle dogs [2] (Conc. 0.10% (0.1%) g/100 mL) is recorded as −4 mm Hg. The “DOG Max. hyperemia” value in the data set with Beagle dogs [1] (Conc. 0.10% (0.1%) g/100 mL) stood at 1. Moreover, the “RABBIT Max. hyperemia” value in the data set on rabbits (Conc. 0.10% (0.1%) g/100 mL) is reported as 0.
With `CCCCCC(O)c1ccc([C@@H]2[C@@H](C/C=C\CCCC(=O)O)[C@H](Cl)C[C@H]2Cl)cc1` (stereo partly drawn), the “Ca2+ Signal-EC50 (nM) FP” value at hFP is reported as “not active”. Besides, at hEP1, the “Ca2+ Signal-EC50 (nM) EP1” value was “not active”. In addition, on hEP4/Gqs5, the “Ca2+ Signal-EC50 (nM) EP4” value is “not active”. For the same molecule, on hTP, the “Ca2+ Signal-EC50 (nM) TP” value is “not active”. In addition, the “Ca2+ Signal-EC50 (nM) IP” value at hIP is on record as “not active”.

The record behind these values is patent publication US7799821B2, “Therapeutic compounds” (Allergan, Inc., priority 2004, dated 2010).
